Measured values: paper PMC3222680 (PLoS ONE, 2011)
Where a chain is given by its changes, count along the chain named.

Columns and labels:
αV25′A β-αWT GlyR = target: T1, αV25′A β-αWT GlyR (Homo sapiens, UniProt P23415+P48167, V305A); assay type: cell-based
T1 construct: The α R218-Q219 and β R242-Q243 are also the joining sites for chimeras constructed between the ECD and TMD; expressed in transfected cells; host or cells: HEK293 (ATCC)
T1 sequence (P23415 29-449 isoform P23415-2 V305A): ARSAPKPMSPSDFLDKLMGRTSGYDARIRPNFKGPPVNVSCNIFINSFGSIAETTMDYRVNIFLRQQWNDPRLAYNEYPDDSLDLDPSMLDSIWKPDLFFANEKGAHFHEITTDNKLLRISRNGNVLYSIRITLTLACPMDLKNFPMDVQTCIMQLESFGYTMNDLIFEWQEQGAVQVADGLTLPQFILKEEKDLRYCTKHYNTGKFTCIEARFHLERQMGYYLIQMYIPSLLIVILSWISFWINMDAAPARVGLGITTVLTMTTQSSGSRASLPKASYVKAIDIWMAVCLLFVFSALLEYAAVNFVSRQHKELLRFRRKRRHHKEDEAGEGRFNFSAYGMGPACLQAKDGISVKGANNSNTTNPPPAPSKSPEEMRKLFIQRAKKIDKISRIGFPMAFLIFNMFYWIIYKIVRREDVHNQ
T1 sequence (P48167+P23415 with tags, fused parts or gaps P48167:V266M/P48167:F268Y/P48167:M270L/P48167:M271I/P48167:G272Q/P48167:V273M/P48167:A275I/P48167:T277S/P48167:V282I/P48167:L286I/P48167:P292M/P48167:S295A/P48167:A296P/P48167:P300G): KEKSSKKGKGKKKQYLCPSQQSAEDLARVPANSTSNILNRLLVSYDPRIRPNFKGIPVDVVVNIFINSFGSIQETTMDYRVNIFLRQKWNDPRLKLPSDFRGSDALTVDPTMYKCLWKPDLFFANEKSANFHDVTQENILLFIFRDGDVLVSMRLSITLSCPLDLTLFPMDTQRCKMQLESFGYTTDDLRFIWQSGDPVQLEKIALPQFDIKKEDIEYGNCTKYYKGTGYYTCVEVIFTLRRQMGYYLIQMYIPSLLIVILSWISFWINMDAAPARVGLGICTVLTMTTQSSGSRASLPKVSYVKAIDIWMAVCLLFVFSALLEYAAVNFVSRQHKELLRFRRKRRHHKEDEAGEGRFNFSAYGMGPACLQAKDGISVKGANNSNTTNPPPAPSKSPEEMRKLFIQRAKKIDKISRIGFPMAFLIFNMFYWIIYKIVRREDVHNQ
Experimental: (§1) The human GlyR α1 and β subunit cDNAs were subcloned into the pcDNA3.1zeo+ (Invitrogen) or pGEMHE [44] plasmid vectors for expression in HEK293 cells or Xenopus oocytes, respectively. Site-directed mutagenesis and chimera construction were performed using the QuickChange (Stratagene, La Jolla, CA, USA) mutagenesis and multiple-template-based sequential PCR protocols, respectively.
(§2) For the β-α chimeras used for determining the effect of hyperekplexia-mimicking mutations on α1 β GlyR channel function, the Thr at the M2 6′ position was replaced by a Cys. […] Through such a modification, picrotoxin resistance was used to distinguish the heteromeric α1 β-α GlyR from the homomeric α1 GlyR when the α1 and β-α subunits were co-expressed.
(§3) The effects of the hyperekplexia-mimicking mutations, K24′A, V25′A and Y27′A, were examined on GlyRs expressed in HEK293 cells (ATCC). Details of the HEK293 cell culture, GlyR expression and electrophysiological recording of the HEK293 cells are described elsewhere. Briefly, HEK293 cells were maintained in DMEM supplemented with 10% fetal bovine serum. Cells were transfected using a calcium phosphate precipitation protocol. When co-transfecting the α1 together with the β or any other chimera subunits, their respective cDNAs were combined in a ratio of 1∶10. In addition, the pEGFP-N1 (Clontech) was co-transfected to facilitate identifying the transfected cells. […] Cells were treated with external Ringer's solution and internal CsCl solution [30]. Cells were voltage-clamped at −40 mV. When the heteromeric GlyRs were expressed, the picrotoxin sensitivity was tested to confirm that the majority of receptors are heteromers, [30].
(§4) Results are expressed as mean±standard error of the mean of three or more independent experiments. […] Statistical significance was determined using the Student's t-test.

αK24′A β-αWT GlyR = target: T2, αK24′A β-αWT GlyR (Homo sapiens, UniProt P23415+P48167, K304A); assay type: cell-based
T2 construct: The α R218-Q219 and β R242-Q243 are also the joining sites for chimeras constructed between the ECD and TMD; expressed in transfected cells; host or cells: HEK293 (ATCC)
T2 sequence (P23415 29-449 isoform P23415-2 K304A): T1 sequence (P23415 29-449 isoform P23415-2 V305A) with K276A, A277V
T2 sequence (P48167+P23415 with tags, fused parts or gaps P48167:V266M/P48167:F268Y/P48167:M270L/P48167:M271I/P48167:G272Q/P48167:V273M/P48167:A275I/P48167:T277S/P48167:V282I/P48167:L286I/P48167:P292M/P48167:S295A/P48167:A296P/P48167:P300G): T1 sequence (P48167+P23415 with tags, fused parts or gaps P48167:V266M/P48167:F268Y/P48167:M270L/P48167:M271I/P48167:G272Q/P48167:V273M/P48167:A275I/P48167:T277S/P48167:V282I/P48167:L286I/P48167:P292M/P48167:S295A/P48167:A296P/P48167:P300G)
Experimental: as §1, §2, §3, §4

[1] = αV25′A β-αWT, HEK293, with glycine at EC50 of α1 homomer
[2] = αK24′A β-αWT, HEK293, with glycine at EC50 of α1 homomer

Row | Compound | 10uM PTX inhibition (%) (αV25′A β-αWT GlyR; [1]) | 100uM PTX inhibition (%) (αV25′A β-αWT GlyR; [1]) | 10uM PTX inhibition (%) (αK24′A β-αWT GlyR; [2]) | 100uM PTX inhibition (%) (αK24′A β-αWT GlyR; [2]) | Imax (αV25′A β-αWT GlyR) | nH (αV25′A β-αWT GlyR) | Imax (αK24′A β-αWT GlyR) | nH (αK24′A β-αWT GlyR)
1 | picrotoxin [PTX] | 12.0±2.5% | 37±6% | 10.0±2.2% | 23±4% |  |  |  | 
2 | NCC(=O)O [glycine] |  |  |  |  | 8.9±1.5 nA | 1.7±0.3 | 8.9±1.9 nA | 2.0±0.3
